# In patent US10065956B2, “Ethynyl derivatives” (Hoffmann-La Roche Inc., priority 2015, dated 2018):
# What was measured:
# mice [1] = details: mice treated with MPTP; cited from earlier work
# mice [2] = details: reported by Addex 2010; cited from earlier work
# mice [3] = details: reported by Addex 2010; cited from earlier work; remark: listed apart in the source
# rats = details: cited from earlier work
# rodent = details: 6-OHDA rodent model of PD; cited from earlier work
# human mGlu4 receptor = target: T1, human mGlu4 receptor (Homo sapiens, UniProt Q14833); assay: Ca2+ mobilization in vitro assay on recombinant human mGlu4 expressed in HEK293 cells (PAM, L-AP4 at EC20); format: cell-based; details: for Emax: HEK293, maximal response in % of the maximal stimulatory effect obtained with saturating concentrations of L-AP4, read-out: Eff. (%); for EC50: HEK293 cells expressing human mGlu4, L-AP4 added at EC20
# T1 construct: expressed in transfected cells; host or cells: monoclonal HEK-293 cell line, stably transfected
# T1 sequence (Q14833 33-912): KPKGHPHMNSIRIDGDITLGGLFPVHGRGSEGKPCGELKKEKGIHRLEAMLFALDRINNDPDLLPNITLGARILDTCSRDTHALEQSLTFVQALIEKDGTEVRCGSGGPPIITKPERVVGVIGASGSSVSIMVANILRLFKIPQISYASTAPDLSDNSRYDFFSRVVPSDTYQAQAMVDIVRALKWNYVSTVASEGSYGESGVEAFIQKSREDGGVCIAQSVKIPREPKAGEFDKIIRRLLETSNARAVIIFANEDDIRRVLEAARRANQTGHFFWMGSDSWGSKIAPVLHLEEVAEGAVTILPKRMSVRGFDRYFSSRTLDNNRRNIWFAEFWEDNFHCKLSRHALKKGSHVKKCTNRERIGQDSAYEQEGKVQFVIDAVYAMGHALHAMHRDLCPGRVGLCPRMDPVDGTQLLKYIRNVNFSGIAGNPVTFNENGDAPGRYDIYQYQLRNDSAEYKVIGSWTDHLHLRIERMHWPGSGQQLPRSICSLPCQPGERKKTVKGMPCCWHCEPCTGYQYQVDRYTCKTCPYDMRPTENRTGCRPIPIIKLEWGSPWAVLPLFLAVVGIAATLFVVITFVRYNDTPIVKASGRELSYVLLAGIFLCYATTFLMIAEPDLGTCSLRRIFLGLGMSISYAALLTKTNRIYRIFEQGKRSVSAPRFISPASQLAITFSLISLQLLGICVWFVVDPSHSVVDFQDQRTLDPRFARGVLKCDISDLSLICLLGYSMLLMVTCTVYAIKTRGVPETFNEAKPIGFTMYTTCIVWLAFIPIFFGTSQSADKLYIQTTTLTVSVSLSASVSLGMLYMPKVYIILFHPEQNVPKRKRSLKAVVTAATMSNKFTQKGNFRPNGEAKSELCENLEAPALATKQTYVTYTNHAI
Structure (SMILES),Emax (human mGlu4 receptor) [%],EC50 (human mGlu4 receptor) [nM],other results
"O=C(Nc1ccccc1)C12CC1/C(=N\O)c1ccccc1O2 (single isomer, unassigned; (-)) [(−)-PHCCC]",–,–,nigrostriatal degeneration (mice [1]): reduced nigrostriatal degeneration
Cc1ccnc(Nc2nc(-c3cn[nH]c3)c(C)s2)n1 [ADX88178],–,–,"activity in marble burying test (mice [2]): active; activity in EPM (mice [3]): active; profile in the rat EPM test (rats; rat, after oral dosing): anxiolytic-like profile; activity in EPM (rats; rats, reported by Addex 2010): active"
"N[C@@H](CCP(=O)(O)O)C(=O)O [L-AP4, (2S)-2-amino-4-phosphonobutanoic acid]",–,–,neuroprotection in 6-OHDA model (rodent): neuroprotective effects
"CN1C(=O)N(c2c(F)cc(C#Cc3ccccc3)cc2F)C(=O)C[C@@]1(C)c1cnco1 [Example 35, (6S)-3-[2,6-Difluoro-4-(2-phenylethynyl)phenyl]-1,6-dimethyl-6-oxazol-5-yl-hexahydropyrimidine-2,4-dione]",195,90,–
"CN1C(=O)N(c2c(F)cc(C#Cc3ccccc3)cc2F)C(=O)C[C@@]1(C)c1ccns1 [Example 43, (6S)-3-[2,6-Difluoro-4-(2-phenylethynyl)phenyl]-6-isothiazol-5-yl-1,6-dimethyl-hexahydropyrimidine-2,4-dione]",151,67,–
"CN1C(=O)N(c2c(F)cc(C#Cc3ccccc3)cc2F)C(=O)C[C@@]1(C)c1cn(C)c2ncccc12 [Example 9, (6S)-3-[2,6-Difluoro-4-(2-phenylethynyl)phenyl]-1,6-dimethyl-6-(1-methylpyrrolo[2,3-b]pyridin-3-yl)hexahydropyrimidine-2,4-dione]",155,81,–
"CN1C(=O)N(c2c(F)cc(C#Cc3ccccc3)cc2F)C(=O)C[C@@]1(C)c1ccn(C)n1 [Example 26, (6S)-3-[2,6-Difluoro-4-(2-phenylethynyl)phenyl]-1,6-dimethyl-6-(1-methylpyrazol-3-yl)hexahydropyrimidine-2,4-dione]",146,69,–
"CN1C(=O)N(c2c(F)cc(C#Cc3ccccc3)cc2Cl)C(=O)C[C@@]1(C)c1cnn(C)c1 [Example 44, (6S)-3-[2-Chloro-6-fluoro-4-(2-phenylethynyl)phenyl]-1,6-dimethyl-6-(1-methylpyrazol-4-yl)hexahydropyrimidine-2,4-dione]",153,99,–
"CN1C(=O)N(c2c(F)cc(C#Cc3cccnc3)cc2F)C(=O)C[C@@]1(C)c1cn[nH]c1 [Example 36, (6S)-3-[2,6-Difluoro-4-[2-(3-pyridyl)ethynyl]phenyl]-1,6-dimethyl-6-(1H-pyrazol-4-yl)hexahydropyrimidine-2,4-dione]",164,41,–
